In patent publication US12421210B2, “Fused bicyclic heterocycles as therapeutic agents” (NEW YORK UNIVERSITY, priority 2018, dated 2025):

biological target: human NAMPT enzyme (His-hNAMPT) (Homo sapiens (Human), UniProt P43490); assay: NAMPT enzymatic inhibition assay (fluorescence, NADH product); type: biochemical; settings: [BPS]; read-out: NAMPT IC50 (μM) [BPS]
Sequence (P43490 whole entry): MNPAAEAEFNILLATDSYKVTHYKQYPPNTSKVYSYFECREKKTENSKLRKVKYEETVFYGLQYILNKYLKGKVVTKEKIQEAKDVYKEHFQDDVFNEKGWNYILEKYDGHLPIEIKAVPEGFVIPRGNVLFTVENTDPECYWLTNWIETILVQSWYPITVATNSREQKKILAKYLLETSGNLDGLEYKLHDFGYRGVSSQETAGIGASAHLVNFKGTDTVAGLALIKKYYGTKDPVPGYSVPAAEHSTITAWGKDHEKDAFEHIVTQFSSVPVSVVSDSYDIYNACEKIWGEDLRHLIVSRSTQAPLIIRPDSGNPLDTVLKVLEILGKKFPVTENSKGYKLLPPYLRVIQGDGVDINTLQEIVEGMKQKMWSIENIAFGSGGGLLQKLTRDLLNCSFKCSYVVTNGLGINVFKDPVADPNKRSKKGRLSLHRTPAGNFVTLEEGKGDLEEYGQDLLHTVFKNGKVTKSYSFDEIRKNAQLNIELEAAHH

| IC50 [µM] | SMILES |
| --- | --- |
| 1 to 29 | CC(C)(C)OC(=O)N1C[C@@H]2[C@H](C1)[C@H]2C(O)CNC(=O)/C=C/c1ccc(N)nc1 (stereo partly drawn) [Example 252, (1R,5S,6r)-tert-butyl 6-(2-((E)-3-(6-aminopyridin-3-yl)acrylamido)-1-hydroxyethyl)-3-azabicyclo[3.1.0]hexane-3-carboxylate] |
| 0.01 to 0.49 | CC(C)(C)OC(=O)N1C[C@@H]2[C@H](C1)[C@H]2C(O)CNC(=O)/C=C/c1cccnc1 (stereo partly drawn) [Example 253, (1R,5S,6r)-tert-butyl 6-(1-hydroxy-2-((E)-3-(pyridin-3-yl)acrylamido)ethyl)-3-azabicyclo[3.1.0]hexane-3-carboxylate] |
| 0.01 to 0.49 | CC(C)(C)OC(=O)N1C[C@@H]2[C@H](C1)[C@H]2C(F)CNC(=O)/C=C/c1ccc(N)nc1 (stereo partly drawn) [Example 254, (1R,5S,6r)-tert-butyl 6-(2-((E)-3-(6-aminopyridin-3-yl)acrylamido)-1-fluoroethyl)-3-azabicyclo[3.1.0]hexane-3-carboxylate] |
| 0.01 to 0.49 | CC(C)(C)OC(=O)N1C[C@@H]2[C@H](C1)[C@H]2C(F)CNC(=O)/C=C/c1cccnc1 (stereo partly drawn) [Example 255, (1R,5S,6r)-tert-butyl 6-(1-fluoro-2-((E)-3-(pyridin-3-yl)acrylamido)ethyl)-3-azabicyclo[3.1.0]hexane-3-carboxylate] |
| 0.01 to 0.49 | CC(C)(C)OC(=O)N1C[C@H]2C[C@@H](CNC(=O)N3Cc4ccncc4C3)C[C@H]2C1 [Example 267, tert-butyl (3aR,5r,6aS)-5-((2,3-dihydro-1H-pyrrolo[3,4-c]pyridine-2-carboxamido)methyl)hexahydrocyclopenta[c]pyrrole-2(1H)-carboxylate] |
| 0.5 to 0.99 | CC(C)(C)OC(=O)N1C[C@H]2CC(CNC(=O)NCc3cccnc3)C[C@H]2C1 (some centres unmarked) [Example 268, tert-butyl 5-((3-(pyridin-3-ylmethyl)ureido)methyl)hexahydrocyclopenta[c]pyrrole-2(1H)-carboxylate] |
| 1 to 29 | CC(C)(C)OC(=O)N1CCC2CC(CNC(=O)NCc3cccnc3)CC2C1 (centres unmarked) [Example 271, tert-butyl 6-((3-(pyridin-3-ylmethyl)ureido)methyl)hexahydro-1H-cyclopenta[c]pyridine-2(3H)-carboxylate] |
| 0.01 to 0.49 | CC(C)(C)OC(=O)N1CCC2CC(CNC(=O)N3Cc4ccncc4C3)CC2C1 (centres unmarked) [Example 272, tert-butyl 6-((2,3-dihydro-1H-pyrrolo[3,4-c]pyridine-2-carboxamido)methyl)hexahydro-1H-cyclopenta[c]pyridine-2(3H)-carboxylate] |
| 1 to 29 | CC(C)(C)OC(=O)N1C[C@H]2C[C@H](CNC(=O)N3Cc4ccncc4C3)C[C@H]2C1 [Example 273, (3aR,5s,6aS)-tert-butyl 5-((2,3-dihydro-1H-pyrrolo[3,4-c]pyridine-2-carboxamido)methyl)hexahydrocyclopenta[c]pyrrole-2(1H)-carboxylate] |
| 0.01 to 0.49 | CC(C)(C)OC(=O)N1C[C@H]2C[C@@H](CCNC(=O)/C=C/c3cccnc3)C[C@H]2C1 [Example 274, (3aR,5r,6aS)-tert-butyl 5-(2-((E)-3-(pyridin-3 yl)acrylamido)ethyl)hexahydrocyclopenta[c]pyrrole-2(1H)-carboxylate] |
| 0.5 to 0.99 | CC(C)(C)OC(=O)N1C[C@H]2C[C@@H](CCNC(=O)COc3cccnc3)C[C@H]2C1 [Example 275, (3aR,5r,6aS)-tert-butyl 5-(2-(2-(pyridin-3-yloxy)acetamido)ethyl)hexahydrocyclopenta[c]pyrrole-2(1H)-carboxylate] |

same assay, conditions: [HDB]; read-out: NAMPT IC50 (μM) [HDB]

| IC50 [µM] | SMILES |
| --- | --- |
| 0.5 to 0.99 | O=C(/C=C/c1cccnc1)NCC[C@@H]1[C@H]2CN(CC3CCOCC3)C[C@@H]12 [Example 246, (E)-3-(pyridin-3-yl)-N-(2-((1R,5S,6s)-3-((tetrahydro-2H-pyran-4-yl)methyl)-3-azabicyclo[3.1.0]hexan-6-yl)ethyl)acrylamide] |
| 0.01 to 0.49 | O=C(/C=C/c1cccnc1)NCC[C@@H]1[C@H]2CN(Cc3ccc(F)cc3)C[C@@H]12 [Example 247, (E)-N-(2-((1R,5S,6s)-3-(4-fluorobenzyl)-3-azabicyclo[3.1.0]hexan-6-yl)ethyl)-3-(pyridin-3-yl)acrylamide] |
| 0.01 to 0.49 | O=C(/C=C/c1cccnc1)NCC[C@@H]1[C@H]2CN(Cc3ccc(F)cc3F)C[C@@H]12 [Example 248, (E)-N-(2-((1R,5S,6s)-3-(2,4-difluorobenzyl)-3-azabicyclo[3.1.0]hexan-6-yl)ethyl)-3-(pyridin-3-yl)acrylamide] |
| 0.01 to 0.49 | CC(c1ccccc1)N1C[C@@H]2[C@@H](CCNC(=O)/C=C/c3cccnc3)[C@@H]2C1 (stereo partly drawn) [Example 249, (E)-N-(2-((1R,5S,6s)-3-(1-phenylethyl)-3-azabicyclo[3.1.0]hexan-6-yl)ethyl)-3-(pyridin-3-yl)acrylamide] |
| 0.01 to 0.49 | O=C(/C=C/c1cccnc1)NCC[C@@H]1[C@H]2CN(CCc3ccc(F)cc3)C[C@@H]12 [Example 250, (E)-N-(2-((1R,5S,6s)-3-(4-fluorophenethyl)-3-azabicyclo[3.1.0]hexan-6-yl)ethyl)-3-(pyridin-3-yl)acrylamide] |
| 0.01 to 0.49 | O=C(/C=C/c1cccnc1)NCC[C@@H]1[C@H]2CN(Cc3cc(Cl)cc(Cl)c3)C[C@@H]12 [Example 251, (E)-N-(2-((1R,5S,6s)-3-(3,5-dichlorobenzyl)-3-azabicyclo[3.1.0]hexan-6-yl)ethyl)-3-(pyridin-3-yl)acrylamide] |
| < 0.01 | O=C(/C=C/c1cccnc1)NCC[C@@H]1[C@H]2CN(C(c3ccccc3)c3ccccc3)C[C@@H]12 [Example 276, (E)-N-(2-((1R,5S,6s)-3-benzhydryl-3-azabicyclo[3.1.0]hexan-6-yl)ethyl)-3-(pyridin-3-yl)acrylamide] |
| < 0.01 | O=C(/C=C/c1cccnc1)NCC[C@@H]1[C@H]2CN(c3nc(N4CCOCC4)ncc3F)C[C@@H]12 [Example 277, (E)-N-(2-((1R,5S,6s)-3-(5-fluoro-2-morpholinopyrimidin-4-yl)-3-azabicyclo[3.1.0]hexan-6-yl)ethyl)-3-(pyridin-3-yl)acrylamide] |
| < 0.01 | O=C(/C=C/c1cccnc1)NCC[C@@H]1[C@H]2CN(c3nc(OC4CCCC4)ncc3F)C[C@@H]12 [Example 278, (E)-N-(2-((1R,5S,6s)-3-(2-(cyclopentyloxy)-5-fluoropyrimidin-4-yl)-3-azabicyclo[3.1.0]hexan-6-yl)ethyl)-3-(pyridin-3-yl)acrylamide] |
| 0.01 to 0.49 | CC(C)(C)OC(=O)N1C[C@@H]2[C@H](CCNC(=O)/C=C/c3cccnc3)[C@@H]2C1 [Example 279, (1R,5S,6r)-tert-butyl 6-(2-((E)-3-(pyridin-3-yl)acrylamido)ethyl)-3-azabicyclo[3.1.0]hexane-3-carboxylate] |
| 0.01 to 0.49 | O=C(/C=C/c1cccnc1)NCC[C@H]1[C@H]2CN(Cc3ccccc3)C[C@@H]12 [Example 280, (E)-N-(2-((1R,5S,6r)-3-benzyl-3-azabicyclo[3.1.0]hexan-6-yl)ethyl)-3-(pyridin-3-yl)acrylamide] |
| 0.01 to 0.49 | O=C(/C=C/c1cccnc1)NCC[C@H]1[C@H]2CN(c3ccccc3)C[C@@H]12 [Example 281, (E)-N-(2-((1R,5S,6r)-3-phenyl-3-azabicyclo[3.1.0]hexan-6-yl)ethyl)-3-(pyridin-3-yl)acrylamide] |
| 0.01 to 0.49 | O=C(O)COc1ncc(F)c(N2C[C@@H]3[C@@H](CCNC(=O)/C=C/c4cccnc4)[C@@H]3C2)n1 [Example 282, 2-((5-fluoro-4-((1R,5S,6s)-6-(2-((E)-3-(pyridin-3-yl)acrylamido)ethyl)-3-azabicyclo[3.1.0]hexan-3-yl)pyrimidin-2-yl)oxy)acetic acid] |
| < 0.01 | NC(=O)C(c1ccccc1)N1C[C@@H]2[C@@H](CCNC(=O)/C=C/c3cccnc3)[C@@H]2C1 (stereo partly drawn) [Example 283, (E)-N-(2-((1R,5S,6s)-3-(2-amino-2-oxo-1-phenylethyl)-3-azabicyclo[3.1.0]hexan-6-yl)ethyl)-3-(pyridin-3-yl)acrylamide] |
| < 0.01 | NC(=O)COc1ncc(F)c(N2C[C@@H]3[C@@H](CCNC(=O)/C=C/c4cccnc4)[C@@H]3C2)n1 [Example 285, (E)-N-(2-((1R,5S,6s)-3-(2-(2-amino-2-oxoethoxy)-5-fluoropyrimidin-4-yl)-3-azabicyclo[3.1.0]hexan-6-yl)ethyl)-3-(pyridin-3-yl)acrylamide] |
| 0.01 to 0.49 | O=C(/C=C/c1cccnc1)NCC[C@@H]1[C@H]2CN(C(CO)c3ccccc3)C[C@@H]12 (stereo partly drawn) [Example 286, (E)-N-(2-((1R,5S,6s)-3-(2-hydroxy-1-phenylethyl)-3-azabicyclo[3.1.0]hexan-6-yl)ethyl)-3-(pyridin-3-yl)acrylamide] |
| < 0.01 | O=C(/C=C/c1cccnc1)NCC[C@@H]1[C@H]2CN(c3nc(-c4ccccc4)ncc3F)C[C@@H]12 [Example 287, (E)-N-(2-((1R,5S,6s)-3-(5-fluoro-2-phenylpyrimidin-4-yl)-3-azabicyclo[3.1.0]hexan-6-yl)ethyl)-3-(pyridin-3-yl)acrylamide] |
| 0.01 to 0.49 | CP(C)(=O)c1cccc(N2C[C@@H]3[C@@H](CCNC(=O)/C=C/c4cccnc4)[C@@H]3C2)c1 [Example 288, (E)-N-(2-((1R,5S,6s)-3-(3-(dimethylphosphoryl)phenyl)-3-azabicyclo[3.1.0]hexan-6-yl)ethyl)-3-(pyridin-3-yl)acrylamide] |
| 0.01 to 0.49 | O=C(/C=C/c1cccnc1)NCC[C@@]1(F)[C@@H]2CN(Cc3ccccc3)C[C@@H]21 [Example 289, (E)-N-(2-((1R,5S,6r)-3-benzyl-6-fluoro-3-azabicyclo[3.1.0]hexan-6-yl)ethyl)-3-(pyridin-3-yl)acrylamide] |
| 0.01 to 0.49 | Nc1ccc(/C=C/C(=O)NCC[C@@]2(F)[C@@H]3CN(c4ncccn4)C[C@@H]32)cn1 [Example 290, (E)-3-(6-aminopyridin-3-yl)-N-(2-((1R,5S,6r)-6-fluoro-3-(pyrimidin-2-yl)-3-azabicyclo[3.1.0]hexan-6-yl)ethyl)acrylamide] |
| 0.01 to 0.49 | CC(C)(C)OC(=O)N1C[C@@H]2[C@H](C1)[C@@]2(F)CCNC(=O)/C=C/c1cccnc1 [Example 291, (1R,5S,6r)-tert-butyl 6-fluoro-6-(2-((E)-3-(pyridin-3-yl)acrylamido)ethyl)-3-azabicyclo[3.1.0]hexane-3-carboxylate] |
